“Also recorded” adds a separate entry of the source.
Experiments:
[1] = test system: Acyrthosiphon pisum aphids; assay: Aphid survival monitoring; type: in vivo
endosymbiotic Buchnera = assay: Buchnera/aphid DNA copy numbers by qPCR; type: in vivo, Buchnera aphidicola
Method: After 7 days of treatment, DNA was extracted from multiple aphids from each treatment group. Briefly, the aphid body surface was sterilized by dipping the aphid into a 6% bleach solution for approximately 5 seconds. Aphids were then rinsed in sterile water and DNA was extracted from each individual aphid using a DNA extraction kit (Qiagen, DNeasy kit) according to manufacturer's instructions. DNA concentration was measured using a nanodrop nucleic acid quantification, and Buchnera and aphid DNA copy numbers were measured by qPCR. […]
After 8 days of treatment, DNA was extracted from multiple aphids from each treatment group. Briefly, the aphid body surface was sterilized by dipping the aphid into a 6% bleach solution for approximately 5 seconds. Aphids were then rinsed in sterile water and DNA was extracted from each individual aphid using a DNA extraction kit (Qiagen, DNeasy kit) according to manufacturer's instructions. DNA concentration was measured using a nanodrop nucleic acid quantification, and Buchnera and aphid DNA copy numbers were measured by qPCR.
After 8 days of treatment, DNA was extracted from the remaining aphids in each treatment group. Briefly, the aphid body surface was sterilized by dipping the aphid into a 6% bleach solution for approximately 5 seconds. Aphids were then rinsed in sterile water and DNA was extracted from each individual aphid using a DNA extraction kit (Qiagen, DNeasy kit) according to manufacturer's instructions. DNA concentration was measured using a nanodrop nucleic acid quantification, and Buchnera and aphid DNA copy numbers were measured by qPCR.
After 7 of treatment, DNA was extracted from the remaining aphids in each treatment group. Briefly, the aphid body surface was sterilized by dipping the aphid into a 6% bleach solution for approximately 5 seconds. Aphids were then rinsed in sterile water and DNA was extracted from each individual aphid using a DNA extraction kit (Qiagen, DNeasy kit) according to manufacturer's instructions. DNA concentration was measured using a nanodrop nucleic acid quantification, and Buchnera and aphid DNA copy numbers were measured by qPCR.
Briefly, the aphid body surface was sterilized by dipping the aphid into a 6% bleach solution for approximately 5 seconds. Aphids were then rinsed in sterile water and DNA was extracted from each individual aphid using a DNA extraction kit (Qiagen, DNeasy kit) according to manufacturer's instructions. DNA concentration was measured using a nanodrop nucleic acid quantification, and Buchnera and aphid DNA copy numbers were measured by qPCR.
After 3 days of treatment, DNA was extracted from the remaining living aphids from each treatment group. Briefly, the aphid body surface was sterilized by dipping the aphid into a 6% bleach solution for approximately 5 seconds. Aphids were then rinsed in sterile water and DNA was extracted from each individual aphid using a DNA extraction kit (Qiagen, DNeasy kit) according to manufacturer's instructions. DNA concentration was measured using a nanodrop nucleic acid quantification, and Buchnera and aphid DNA copy numbers were measured by qPCR. […]

[2] = test system: Acyrthosiphon pisum aphids; assay: Aphid developmental stage monitoring; type: in vivo; conditions: for aphids that did not mature further than the 4th instar stage: eNASCO, 11 days post-treatment
[3] = test system: gram-negative and gram-positive organisms; conditions: cited from earlier work
[4] = test system: gram-negative and gram-positive bacteria as well as fungi; conditions: cited from earlier work
[5] = LSR-1, 100 μg/ml rifampicin in artificial diet without essential amino acids, through plants

With `Cc1cc2c(C(C)C)c(O)c(O)c(C=O)c2c(O)c1-c1c(C)cc2c(C(C)C)c(O)c(O)c(C=O)c2c1O` [gossypol, gossypol acetic acid] the “all aphids succumbed to treatment by” value ([1]; 0.5% gossypol) was at most 4 days, the “aphids began dying after” value ([1]; 0.5% gossypol) was 2 days and the “Buchnera/aphid DNA copies, fold less than control” value (endosymbiotic Buchnera; 0.25 and 0.5% of gossypol, 5 or 13 days) was ~4 -fold less.

In the case of `CC(=O)CCC(=O)O` [levulinic acid], the aphid developmental stage ([2]; eNASCO 1st and 2nd instar, 0.03 or 0.3% levulinic acid, leaf injection and through plant) is reported as “Development was delayed; also recorded: resulted in delayed aphid development”, the “aphids that did not mature further than the 4th instar stage” value ([2]; 0.03% levulinic acid) is reported as about 23% and the “aphids that did not mature further than the 4th instar stage” value ([2]; 0.3% levulinic acid) is reported as about 63%. The aphid mortality ([1]; eNASCO, 0.03% levulinic acid, difference did not reach statistical significance) was “higher mortality compared to control treated aphids”, the aphid survival ([1]; eNASCO, 0.03 or 0.3% levulinic acid) was “dose-dependent decrease in survival; also recorded: decrease in insect survival” and the aphid survival ([1]; eNASCO, 0.3% levulinic acid, 11-day experiment) was “survival was significantly less”. The “Buchnera/aphid DNA copies, fold less than control” value (endosymbiotic Buchnera; 0.03 or 0.3% levulinic acid in water, 7 days) was ~6 -fold less and the Buchnera/aphid ratio (endosymbiotic Buchnera; 0.03 or 0.3% levulinic acid, seven and eleven days post-treatment) was “reduced endosymbiotic Buchnera”.

For `CO[C@H]1/C=C/O[C@@]2(C)Oc3c(C)c(O)c4c(O)c(c(/C=N/N5CCN(C)CC5)c(O)c4c3C2=O)NC(=O)/C(C)=C\C=C\[C@H](C)[C@H](O)[C@@H](C)[C@@H](O)[C@@H](C)[C@H](OC(C)=O)[C@@H]1C` [rifampicin, reference compound], the “all aphids succumbed to treatment by” value [1, 5] was at most 9 days, the “aphids began dying after” value [1, 5] was 1 days and the “Buchnera/aphid DNA copies, fold less than control” value (endosymbiotic Buchnera; LSR-1, 100 μg/ml rifampicin through plants, 7 days of treatment) was ~4 -fold less.

In the case of `O=C/C=C/c1ccccc1` [trans-cinnemaldehyde], the aphid developmental stage ([2]; 5% trans-cinnemaldehyde) is reported as “remained at the 1st instar stage throughout the course of the experiment”, the aphid developmental stage ([2]; LSR-1 1st and 2nd instar, trans-cinnemaldehyde 0.05%, 0.5%, 5% in water, leaf perfusion and through plants, 3 days) is reported as “none of the aphids matured past the second instar stage” and the aphid developmental stage ([2]; LSR-1 1st and 2nd instar, trans-cinnemaldehyde 0.05%, 0.5%, 5% in water, leaf perfusion and through plants, 3 days, listed as Trans-cinnemaldehyde) is reported as “resulted in delayed aphid development”. For the same molecule, the aphid survival rate ([1]; 0.05%, 0.5%, and 5% trans-cinnemaldehyde, 3 days) was “dose-dependent decrease in survival; also recorded: significantly lower”, the “Buchnera/aphid DNA copies, fold less than control” value (endosymbiotic Buchnera; 0.5 and 5% of trans-cinnemaldehyde, 3 days) was ~870 -fold less and the “Buchnera/aphid DNA copies” value (endosymbiotic Buchnera; lowest concentration of trans-cinnemaldehyde (0.5%), 3 days) was “high ratios of Buchnera/aphid DNA copies”. The “Buchnera/aphid DNA (symbiont titer)” value (endosymbiotic Buchnera; trans-cinnemaldehyde 0.05%, 0.5%, 5%, 3 days post-treatment) was “reduced endosymbiotic Buchnera” and the antimicrobial activity [3] was “antimicrobial activity against both gram-negative and gram-positive organisms”.

B1: NCR335: cationic NCR peptide (peptide)
chain: MQIGKNMVETPKLDYVIIFFFLYFFFRQMIILRLNTTFRPLNFKMLRFWGQNRNIMKHRGQKVHFSLILSDCKTNKDCPKLRRANVRCRKSYCVPI
For B1, the antimicrobial activities [4] is given as “effective against gram-negative and gram-positive bacteria as well as fungi”.
